Source: patent US8288396B2, “Pyrimidopyrimidoindazole derivative” (MSDKK, priority 2009, dated 2012)
Structures can show the parent of a compound that is named as a salt.

Legend:
Wee1 kinase = target: T1, Wee1 kinase (Homo sapiens, UniProt P30291); assay: Wee1 kinase inhibitory effect (Pharmacological Test 1); format: biochemical; details: GST-tagged Wee1 kinase, Poly(Lys, Tyr) substrate, 10 μM ATP, 30° C. for 30 minutes
T1 construct: made in house; host or cells: Sf9 insect cells (recombinant baculovirus)
T1 sequence (P30291 whole entry): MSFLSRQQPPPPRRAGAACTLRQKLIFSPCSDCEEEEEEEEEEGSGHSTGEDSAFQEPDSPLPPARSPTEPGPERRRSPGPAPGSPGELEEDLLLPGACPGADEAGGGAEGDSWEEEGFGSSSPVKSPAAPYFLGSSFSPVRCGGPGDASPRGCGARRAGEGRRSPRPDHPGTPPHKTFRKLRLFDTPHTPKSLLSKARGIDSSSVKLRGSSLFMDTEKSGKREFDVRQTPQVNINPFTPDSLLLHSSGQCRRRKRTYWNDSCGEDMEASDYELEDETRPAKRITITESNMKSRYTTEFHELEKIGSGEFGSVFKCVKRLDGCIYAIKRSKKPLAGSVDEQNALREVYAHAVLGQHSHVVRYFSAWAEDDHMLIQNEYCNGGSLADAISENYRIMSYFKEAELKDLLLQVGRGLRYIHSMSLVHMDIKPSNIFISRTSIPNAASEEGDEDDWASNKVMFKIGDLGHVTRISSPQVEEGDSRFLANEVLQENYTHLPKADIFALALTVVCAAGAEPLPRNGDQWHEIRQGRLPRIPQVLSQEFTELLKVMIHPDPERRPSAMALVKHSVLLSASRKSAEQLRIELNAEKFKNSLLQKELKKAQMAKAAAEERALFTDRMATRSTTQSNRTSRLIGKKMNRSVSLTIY
Text: Pharmacological Test 1 (Wee1 Kinase Inhibitory Effect)
(1) Purification of Wee1 Kinase
A cDNA of Wee1 kinase with […] (GST) fused at the amino terminal thereof was inserted into a baculovirus expression vector to construct a recombinant baculovirus, with which cells of an insect cell line Sf9 were infected to overexpress the target protein. The infected cells were collected and lysed, and then the GST-tagged Wee1 kinase protein was adsorbed to a glutathione column and eluted from the column with glutathione, and the active fraction was desalted in a desalting column to give a purified enzyme.
(2) Measurement of Wee1 Kinase Activity
In measurement of the Wee1 kinase activity, a synthetic peptide, Poly(Lys, Tyr) hydrobromide (Lys:Tyr (4:1)) purchased from Sigma was used as the substrate.
The amount of the reaction mixture was 21.1 μL; and the composition of the reaction buffer was 50 mM Tris-HCl buffer (pH 7.4)/10 mM magnesium chloride/1 mM dithiothreitol. The purified Wee1 kinase, 2.5 μg of the substrate peptide, 10 μM of non-labeled adenosine triphosphate (ATP) and 1 μCi of [γ-^33P]-labeled ATP (2500 Ci/mmol or more) were added to the reaction buffer, and the resulting mixture was incubated at 30° C. for 30 minutes. Thereafter, 10 μL of 350 mM phosphate buffer was added to the reaction system to stop the reaction. The substrate peptide was adsorbed on a P81 paper filter 96-well plate and the plate was washed several times with 130 mM phosphate buffer, and the radioactivity thereof was counted using a liquid scintillation counter. The [γ-^33P]-labeled ATP was purchased from Amersham Bioscience, Ltd.
The addition of a test compound to the reaction system was carried out by preparing a series of dilutions of the compound with dimethyl sulfoxide (DMSO) and adding 1.1 μL of each dilution to the reaction system. As a control, 1.1 μL of DMSO was added to the reaction system.

[1] = test system: Cdc2 (Cdk1) tyrosine-15 phosphorylation; assay: Inhibitory effect on Cdc2 (Cdk1) tyrosine-15 phosphorylation in NCI-H1299 cells (Pharmacological Test 2); format: cell-based; details: Homo sapiens, camptothecin 200 nM 16 hours, then test compound with nocodazole 8 hours, ELISA, read-out: Cdc2-Y15 Phosphorylation-Inhibitory Effect (H1299, +camptothecin) (EC50)
Text: Pharmacological Test 2 (Method for Determining Drug Effect Using Cells (Inhibitory Effect on Cdc2 (Cdk1) Tyrosine-15 Phosphorylation))
Fetal bovine serum (FBS) was purchased from Morgate, Inc.; an RPMI-1640 medium and a DMEM medium were purchased from Invitrogen, Inc.; camptothecin was purchased from Sigma Co.; gemcitabine was purchased from Eli Lilly Japan K.K.; nocodazole and protease inhibitor cocktail were purchased from Sigma Co.; a rabbit anti-Cdc2 antibody and a mouse anti-Cdc2 antibody were purchased from Santa Cruz Biotechnology, Inc.; a rabbit anti-tyrosine-15-phosphorylated Cdc2 antibody and a horseradish peroxidase-labeled anti-mouse IgG antibody were purchased from Cell Signaling Technology, Inc.; and Sure Blue Reserve TMB peroxidase substrate was purchased from Kirkegaard & Perry Laboratories, Inc.
A human non-small cell lung cancer cell line (NCI-H1299) and a human colon cancer cell line (WiDr) can be obtained from American Type Culture Collection (ATCC).
In the method using NCI-H1299 cells, the cells were suspended in an RPMI-1640 medium supplemented with 10% FBS, and 100 μL of the resulting cell suspension was dispensed in a Nunclon Delta treated 96-well plastic plate purchased from Nunc, Inc. at a density of 2000 cells per well, and the plate was incubated overnight at 37° C. under an atmosphere of 5% CO2 and 95% air. Camptothecin was dissolved in dimethyl sulfoxide (DMSO) and further the resulting solution was diluted with an RPMI-1640 medium supplemented with 10% FBS. Then, 50 μL of the diluted solution was added to each well of the plate in which the cells were seeded in advance such that the final concentration of camptothecin was 200 nM, and the plate was incubated at 37° C. under an atmosphere of 5% CO2 and 95% air for 16 hours. A test compound was serially diluted with DMSO, and further diluted with an RPMI-1640 medium supplemented with 10% FBS containing 4000 nM nocodazole. Then, 50 μL of the test compound solution was added to each well of the plate in which the cells treated with camptothecin were seeded, and the plate was incubated at 37° C. under an atmosphere of 5% CO2 and 95% air for 8 hours. Then, the culture medium was removed from each well and 100 μL of a cell lysis buffer was added to each well, and the plate was shaken at 4° C. for 2 hours, and thereafter the liquid in the plate was frozen at −80° C. and then thawed, which was used as a lysed cell solution. Cdc2 and tyrosine-15-phosphorylated Cdc2 in this lysed cell solution were measured by an enzyme-linked immunosorbent assay (ELISA method), and a ratio of tyrosine-15-phosphorylated Cdc2 to Cdc2 was calculated to determine a 50% effective concentration (EC50, nM) of the test compound for inhibition of phosphorylation in cells. The cell lysis buffer as used herein is an aqueous solution containing 20 mM HEPES (pH 7.5), 150 mM sodium chloride, 1 mM disodium ethylenediamine tetraacetate, 0.1% polyoxyethylene (10) octylphenyl ether, 1% protease inhibitor cocktail, 1 mM dithiothreitol, 2 mM sodium orthovanadate, 10 mM sodium fluoride and 10 mM glycerol diphosphate. The measurement of Cdc2 by the ELISA method was carried out as follows. 50 μL of a solution of a rabbit anti-Cdc2 antibody obtained by diluting the antibody to 200 times with 50 mM carbonate-bicarbonate buffer (pH 9.6) was dispensed into each well of a 96-well Maxisorb immunoplate purchased from Nunc, Inc., and the immunoplate was let stand overnight at 4° C. to immobilize the antibody thereto. Subsequently, each well was washed three times with phosphate buffered saline (PBS), and 300 μL of PBS containing 5% bovine serum albumin (5% BSA/PBS) was added to each well, and then, the immunoplate was let stand at room temperature for 2 hours. […]

SMILES | IC50 (Wee1 kinase) | EC50 [1]
CN(C)CCN1CCc2cc(Nc3ncc4c(=O)n5c(nc4n3)c3ccccc3n5-c3nccs3)ccc21 [Example 144, 2-({1-[2-(dimethylamino)ethyl]-2,3-dihydro-1H-indol-5-yl}amino)-7-(1,3-thiazol-2-yl)pyrimido[4′,5′:4,5]pyrimido[1,2-b]indazol-5(7H)-one] | 15 nM | 190 nM
CN1CCN(c2ccc(Nc3ncc4c(=O)n5c(nc4n3)c3ccc(O)cc3n5-c3ccccn3)cc2)CC1 [Example 150, 9-hydroxy-2-{[4-(4-methylpiperazin-1-yl)phenyl]amino}-7-(pyridin-2-yl)pyrimido[4′,5′:4,5]pyrimido[1,2-b]indazol-5(7H)-one trifluoroacetate] | 8.6 nM | 
CN1CCc2cc(Nc3ncc4c(=O)n5c(nc4n3)c3ccccc3n5-c3nccs3)ccc2C1 [Example 136, 2-[(2-methyl-1,2,3,4-tetrahydroisoquinolin-6-yl)amino]-7-(1,3-thiazol-2-yl)pyrimido[4′,5′:4,5]pyrimido[1,2-b]indazol-5(7H)-one] | 5.3 nM | 11 nM
CN1CCN(c2ccc(Nc3ncc4c(=O)n5c(nc4n3)c3ccccc3n5-c3ncccn3)cc2)CC1 [Example 62, 2-{[4-(4-methylpiperazin-1-yl)phenyl]amino}-7-(pyrimidin-2-yl)pyrimido[4′,5′:4,5]pyrimido[1,2-b]indazol-5(7H)-one] | 38 nM | 
CN1CCc2ccc(Nc3ncc4c(=O)n5c(nc4n3)c3ccccc3n5-c3nccs3)cc2C1 [Example 137, 2-[(2-methyl-1,2,3,4-tetrahydroisoquinolin-7-yl)amino]-7-(1,3-thiazol-2-yl)pyrimido[4′,5′:4,5]pyrimido[1,2-b]indazol-5(7H)-one] | 6.1 nM | 17 nM
Cc1cc(Nc2ncc3c(=O)n4c(nc3n2)c2ccccc2n4-c2ncccn2)ccc1N1CCN(C)CC1 [Example 61, 2-{[3-methyl-4-(4-methylpiperazin-1-yl)phenyl]amino}-7-(pyrimidin-2-yl)pyrimido[4′,5′:4,5]pyrimido[1,2-b]indazol-5(7H)-one] | 12 nM | 130 nM
CN1CCc2cc(Nc3ncc4c(=O)n5c(nc4n3)c3ccccc3n5-c3ccccn3)ccc2C1 [Example 43, 2-[(2-methyl-1,2,3,4-tetrahydroisoquinolin-6-yl)amino]-7-(pyridin-2-yl)pyrimido[4′,5′:4,5]pyrimido[1,2-b]indazol-5(7H)-one] | 4.9 nM | 31 nM
CN1CCc2cc(Nc3ncc4c(=O)n5c(nc4n3)c3ccccc3n5-c3ncccn3)ccc2C1 [Example 100, 2-[(2-methyl-1,2,3,4-tetrahydroisoquinolin-6-yl)amino]-7-(pyrimidin-2-yl)pyrimido[4′,5′:4,5]pyrimido[1,2-b]indazol-5(7H)-one] | 5.1 nM | 52 nM
CN1CCc2cc(Nc3ncc4c(=O)n5c(nc4n3)c3ccccc3n5-c3ncccn3)ccc2C1(C)C [Example 103, 7-(pyrimidin-2-yl)-2-[(1,1,2-trimethyl-1,2,3,4-tetrahydroisoquinolin-6-yl)amino]pyrimido[4′,5′:4,5]pyrimido[1,2-b]indazol-5(7H)-one] | 6.8 nM | 31 nM
CN(C)CCCOc1ccc(Nc2ncc3c(=O)n4c(nc3n2)c2ccccc2n4-c2nccs2)cc1 [Example 121, 2-({4-[3-(dimethylamino)propoxy]phenyl}amino)-7-(1,3-thiazol-2-yl)pyrimido[4′,5′:4,5]pyrimido[1,2-b]indazol-5(7H)-one] | 23 nM | 
CN1CCN(c2ccc(Nc3ncc4c(=O)n5c(nc4n3)c3ccccc3n5-c3ccoc3)cc2)CC1 [Example 147, 7-(furan-3-yl)-2-{[4-(4-methylpiperazin-1-yl)phenyl]amino}pyrimido[4′,5′:4,5]pyrimido[1,2-b]indazol-5(7H)-one] | 5.8 nM | 170 nM
CN1CCN(c2ccc(Nc3ncc4c(=O)n5c(nc4n3)c3ccccc3n5-c3ccccn3)cc2)CC1 [Example 23, 2-{[4-(4-methylpiperazin-1-yl)phenyl]amino}-7-(pyridin-2-yl)pyrimido[4′,5′:4,5]pyrimido[1,2-b]indazol-5(7H)-one] | 30 nM | 
CN(C)CCN1CCOc2cc(Nc3ncc4c(=O)n5c(nc4n3)c3ccccc3n5-c3nccs3)ccc21 [Example 143, 2-({4-[2-(dimethylamino)ethyl]-3,4-dihydro-2H-1,4-benzoxazin-7-yl}amino)-7-(1,3-thiazol-2-yl)pyrimido[4′,5′:4,5]pyrimido[1,2-b]indazol-5(7H)-one] | 15 nM | 190 nM
CN1CCN(c2ccc(Nc3ncc4c(=O)n5c(nc4n3)c3ccccc3n5-c3cscn3)cc2)CC1 [Example 146, 2-{[4-(4-methylpiperazin-1-yl)phenyl]amino}-7-(1,3-thiazol-4-yl)pyrimido[4′,5′:4,5]pyrimido[1,2-b]indazol-5(7H)-one] | 13 nM | 
CN(C)Cc1ccc(Nc2ncc3c(=O)n4c(nc3n2)c2ccccc2n4-c2ncccn2)cc1 [Example 91, 2-({-4-[(dimethylamino)methyl]phenyl}amino)-7-(pyrimidin-2-yl)pyrimido[4′,5′:4,5]pyrimido[1,2-b]indazol-5(7H)-one] | 34 nM | 
CN1CCC(C)(c2ccc(Nc3ncc4c(=O)n5c(nc4n3)c3ccccc3n5-c3ncccn3)cc2)CC1 [Example 88, 2-{[4-(1,4-dimethylpiperidin-4-yl)phenyl]amino}-7-(pyrimidin-2-yl)pyrimido[4′,5′:4,5]pyrimido[1,2-b]indazol-5(7H)-one] | 26 nM | 
Cc1cc(Nc2ncc3c(=O)n4c(nc3n2)c2ccccc2n4-c2ccsc2)ccc1N1CCN(C)CC1 [Example 55, 2-{[3-methyl-4-(4-methylpiperazin-1-yl)phenyl]amino}-7-(3-thienyl)pyrimido[4′,5′:4,5]pyrimido[1,2-b]indazol-5(7H)-one] | 13 nM | 
CN(C)CCc1ccc(Nc2ncc3c(=O)n4c(nc3n2)c2ccccc2n4-c2ncccn2)cc1 [Example 92, 2-({4-[2-(dimethylamino)ethyl]phenyl}amino)-7-(pyrimidin-2-yl)pyrimido[4′,5′:4,5]pyrimido[1,2-b]indazol-5(7H)-one] | 46 nM | 
CN1Cc2ccc(Nc3ncc4c(=O)n5c(nc4n3)c3ccccc3n5-c3ncccn3)cc2C1 [Example 102, 2-[(2-methyl-2,3-dihydro-1H-isoindol-5-yl)amino]-7-(pyrimidin-2-yl)pyrimido[4′,5′:4,5]pyrimido[1,2-b]indazol-5(7H)-one] | 19 nM | 
